This is an account of results in patent US7960483B2, “Adamantane derivative, composition comprising the derivative, and optical and electronic member using the composition” (Idemitsu Kosan Co., Ltd., priority 2006, dated 2011).

Series [1] is described as follows: Compatibility test with bisphenol A (BPA) epoxy resin. The series is classed as physicochemical. Conditions: 2.1 g sample + 0.9 g Epikote 828, mixed at 100-130° C., stood at room temperature; time until crystals begin precipitating. On the procedure:
A sample (2.1 g) and 0.9 g of a BPA epoxy resin (Epikote 828 manufactured by Japan Epoxy Resin Co., Ltd.) were heated to 100° C. to 130° C. and mixed. When a uniform mixture was confirmed to be obtained, the mixture was cooled to room temperature and allowed to quiescently stand to observe the precipitation of crystals with naked eyes and to determine the time period required for the crystals to begin precipitating. When the crystals began precipitating within 0 to 2 days, the evaluation was rated “C”. When 3 to 6 days were required, the evaluation was rated “B”. When no crystals were precipitated even when 7 days had passed, the evaluation was rated “A”.

The nature of series [2]: Solubility test in cyclohexanone. Conditions: saturation solubility at room temperature, liquid chromatography, about 3 days.
Method: To 2 g of a sample 1 g of cyclohexanone was added. The mixture was heated to 80° C. to dissolve the sample and cooled to room temperature. Then seed crystals were added thereto and stirred. The solubility (unit: % by mass) of the sample in the solution was measured by liquid chromatography. Such stirring and measurement by liquid chromatography procedures were repeated for about 3 days. The saturation solubility represents the solubility value at which the measured solubility no longer changed.

Turning to “1,3-bis(glycidyloxyphenyl)adamantane [BP13-EPO, reference compound]”, the “Compatibility with BPA type epoxy resin” value in series [1] is on record as “C (When the crystals began precipitating within 0 to 2 days, the evaluation was rated “C”)”. In the case of `c1cc(OCC2CO2)c(C2CCCCC2)cc1C12CC3CC(C1)CC(c1ccc(OCC4CO4)c(C4CCCCC4)c1)(C3)C2` (stereo not drawn) [BCHP13-EPO, 1,3-bis(4-glycidyloxy-3-cyclohexylphenyl)adamantane], the “Compatibility with BPA type epoxy resin” value in series [1] is listed as “A (When no crystals were precipitated even when 7 days had passed, the evaluation was rated “A”)”. For the same molecule, the Solubility in cyclohexanone in series [2] worked out at 46 % by mass. Turning to `Cc1cc(C23CC4CC(C2)CC(c2cc(C)c(OCC5CO5)c(C)c2)(C4)C3)cc(C)c1OCC1CO1` (stereo not drawn) [BDMP13-EPO, 1,3-bis(4-glycidyloxy-3,5-dimethylphenyl)adamantane], in series [1], the “Compatibility with BPA type epoxy resin” value was “A (When no crystals were precipitated even when 7 days had passed, the evaluation was rated “A”)”. In series [2], this molecule displayed a Solubility in cyclohexanone of 35 % by mass. As for `Cc1cc(C2(c3cc(C)c(OCC4CO4)c(C)c3)C3CC4CC(C3)CC2C4)cc(C)c1OCC1CO1` (stereo not drawn) [BDMP22-EPO, 2,2-bis(4-glycidyloxy-3,5-dimethylphenyl)adamantane], the “Compatibility with BPA type epoxy resin” value in series [1] is recorded as “B (When 3 to 6 days were required, the evaluation was rated “B”)”. In addition, in series [2], the Solubility in cyclohexanone came out at 32 % by mass. Turning to `Cc1cc(C23CC4CC(C2)CC(c2ccc(OCC5CO5)c(C)c2)(C4)C3)ccc1OCC1CO1` (stereo not drawn) [BMP13-EPO, 1,3-bis(4-glycidyloxy-3-methylphenyl)adamantane], the “Compatibility with BPA type epoxy resin” value in series [1] is “B (When 3 to 6 days were required, the evaluation was rated “B”)”. In addition, in series [2], the Solubility in cyclohexanone is listed as 33 % by mass.
